According to patent US20090105349A1, “ANDROGEN MODULATORS” (WARNER-LAMBERT COMPANY LLC, priority 2004, published 2009):
Residue numbers refer to the chain shown, from its start. Read-outs that look alike come from different tables or passages of the source.

Tests used:
[1] = test system: spinal BMD; details: after 7 years of treatment; cited from earlier work
[2] = biological target: T1, hAR (human androgen receptor) (Homo sapiens, UniProt P10275); experiment: Competitive hAR binding assay with 3H-DHT tracer
T1 construct: made in house; host or cells: baculovirus/Sf9 insect cells (crude extract)
T1 sequence (P10275 1-920): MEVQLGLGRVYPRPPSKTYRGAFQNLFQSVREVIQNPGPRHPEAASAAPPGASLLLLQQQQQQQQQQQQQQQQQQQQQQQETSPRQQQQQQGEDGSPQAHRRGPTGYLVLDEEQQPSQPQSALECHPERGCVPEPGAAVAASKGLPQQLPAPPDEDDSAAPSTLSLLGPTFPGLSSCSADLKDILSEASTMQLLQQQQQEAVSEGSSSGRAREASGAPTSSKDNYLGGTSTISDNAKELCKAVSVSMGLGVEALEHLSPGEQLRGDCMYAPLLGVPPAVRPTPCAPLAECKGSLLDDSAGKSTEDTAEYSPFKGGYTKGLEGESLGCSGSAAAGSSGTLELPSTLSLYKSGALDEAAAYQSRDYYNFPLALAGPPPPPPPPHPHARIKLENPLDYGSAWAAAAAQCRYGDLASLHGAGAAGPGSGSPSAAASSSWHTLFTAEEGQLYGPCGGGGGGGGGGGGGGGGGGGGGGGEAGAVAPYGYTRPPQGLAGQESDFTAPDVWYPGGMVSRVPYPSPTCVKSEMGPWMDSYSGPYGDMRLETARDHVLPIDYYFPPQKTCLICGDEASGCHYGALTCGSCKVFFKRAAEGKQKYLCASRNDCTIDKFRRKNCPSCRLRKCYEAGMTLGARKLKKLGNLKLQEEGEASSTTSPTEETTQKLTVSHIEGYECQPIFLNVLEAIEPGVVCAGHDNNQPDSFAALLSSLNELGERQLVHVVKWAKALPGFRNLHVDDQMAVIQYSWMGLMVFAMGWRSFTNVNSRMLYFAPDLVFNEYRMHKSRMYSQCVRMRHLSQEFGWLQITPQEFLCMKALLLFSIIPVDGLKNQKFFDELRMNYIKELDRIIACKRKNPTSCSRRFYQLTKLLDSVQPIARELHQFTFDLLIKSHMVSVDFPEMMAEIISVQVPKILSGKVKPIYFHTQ

[3] = biological target: T2, androgen receptor in MDA-MB453-MMTV clone 54-19 cells (Homo sapiens, UniProt P10275); experiment: AR antagonist cell assay (MMTV-luciferase reporter); format: cell-based
T2 sequence (P10275 1-920 Q868H): T1 sequence (P10275 1-920) with Q868H

[4] = test system: male C3H/HeN mice (telogen to anagen conversion); format: in vivo
Description: While this model is a significant improvement over the telogen conversion assay as a model for human baldness, it suffers from a number of practical disadvantages. The macaques are expensive, relatively rare, labor intensive to maintain, and require long wash out periods between testing. […] Thus, the model relates to a modification of the existing telogen conversion assay. Male C3H/HeN mice approximately 7 weeks old are utilized. These animals are also uniformly in telogen, like their female counterparts. However, once shaven, the androgens inherently present in these male mice inhibit the conversion of the hair follicles to the anagen phase. An anti-androgen will block this androgenic effect and the follicles will convert to anagen, like their female counterparts.
The compounds shown below in Table IV were submitted for further testing utilizing the modified telogen conversion assay, described above. The testing was carried out in the following manner.
Male C3H/HeN mice, 6 to 7 weeks old (Charles River Laboratories, Raleigh, N.C.) were used for the study. Fur was clipped from the dorsal region of the mice prior to initiation of the study. Only mice with pink skin, a visual indication of the telogen phase, were selected for inclusion in the study.
A second group of animals received only the vehicle to serve as a control. Treatments were applied twice daily for 4 weeks.
The hair growth response was quantified by recording, for each animal, the day on which signs of hair growth first appeared over the treated area. The first sign of anagen was the darkening of skin color as melanocytes in the follicles started to synthesize melanin in preparation for the production of pigmented hairs. […] The day on which anagen was initiated in 50% of the test animals for both the treatment group and the vehicle group is reported below in Table IV.

[5] = test system: male Syrian hamsters (ear sebaceous glands, sebum); experiment: Animal model for inhibition of sebum production (hamster ear); format: in vivo, Syrian hamster; details: 3 % w/v, 4 weeks; for % CE Reduction / % WE Reduction: Vehicle #1 (polyethylene glycol/transcutol/ethanol 20/20/60), topical twice daily, vs vehicle control; for % WE & CE Reduction: Vehicle #1, topical twice daily, sum of WE and CE
Experimental: Arch. Derm. […] This model uses male Syrian hamsters, whose ears contain sebaceous glands.
Testing for sebum inhibition was carried out in the following manner. Male Syrian hamsters aged 9 to 10 weeks were introduced into the laboratory environment and acclimated for 2 weeks prior to use in the study. Each group consisted of 5 animals and run in parallel with vehicle and positive controls. Prior to administration, a sufficient quantity each compound was dissolved in 1 mL of the vehicle identified in Table III to achieve the final concentration reported in Table Ill.
Animals were dosed topically twice daily, five days a week, for 4 weeks. Each dose consisted of 25 micro liters of vehicle control or drug. The dose was applied to the ventral surfaces of both the right and left ears. All animals were sacrificed approximately 18-24 hours after the final dose. The right ears were collected from each animal and used for sebum analysis.
The ears were prepped for HPLC analysis in the following manner. One 8 mm distal biopsy punch was taken, just above the anatomical “V” mark in the ear to normalize the sample area. The punch was pulled apart. The ventral biopsy surface (the area where the topical dose was directly applied to the sebaceous glands) was retained for testing and the dorsal surface of the biopsy punch was discarded.
Tissue samples were blown with N2 gas and stored at −80° C. under nitrogen until HPLC analysis. In addition to ear samples, an aliquot of each drug and vehicle (at least 250 ul) was also stored at −80° C. for inclusion in the HPLC analysis.
HPLC analysis was carried out on an extract of the tissue sample. Tissue samples were contacted with 3 ml of solvent (a 4:1 admixture of 2,2,4-trimethylpentane and isopropyl alcohol). The mixture was shaken for 15 minutes and stored overnight at room temperature, protected from light. The next morning 1 milliliter of water was added to the sample and shaken for 15 minutes. The sample was then centrifuged at approximately 1500 rpm for 15 minutes. Two ml of the organic phase (top layer) was transferred to a glass vial, dried at 37° C., under nitrogen, for approximately 1 hour, and then lyophilized for approximately 48 hours. The samples were then removed from the lyophilizer and each vial was reconstituted with 600 μl of solvent A (trimethylpentane/tetrahydrofuran (99:1). The samples were then recapped and vortexed for 5 minutes.
200 μl of each sample was then transferred to a pre-labeled 200 μl HPLC vial with 200 μL glass inserts. The HPLC vials were placed in the autosampler tray for the Agilent 1100 series HPLC unit. The Agilent 1100 HPLC system consisted of a thermostated autosampler, a quarternary pump, a column heater, and an A/D interface module. All components were controlled by Agilent ChemStation software. A Waters Spherisorb S3W 4.6×100 mm analytical column was maintained at 30° C. by the Agilent column heater unit. The HPLC autosampler was programmed to maintain the sample temperature at 20 C throughout the run.
10 uL of each sample was injected in triplicate into the column. Two solvents were used for the solvent gradient. Solvent A was an admixture of trimethylpentane and tetrahydrofuran (99:1). Solvent B was ethylacetate. The gradient utilized is described in the table below: […]
The Sedex 75 Evaporative Light Scattering Detector (ELSD) was operated at 45° C. with a gain of 5, and N2 pressure maintained at 3.1 bar. Analog signal obtained by the instrument was sent to the Agilent A/D interface module where it was converted to a digital output. The conversion was based on a 10000 mAU/volt set point and the data rate was set at 10 Hz (0.03 min). The resulting digital output was then feed into the Agilent ChemStation software for integration of the peak area.

[6] = baculovirus/Sf9 hAR extract, 1 nM 3H-DHT, one hour at 4° C, mean of multiple tests, read-out: AR Binding IC50
[7] = read-out: AR Cell IC50; MDA-MB453-MMTV clone 54-19, inhibition of DHT induced luciferase, 17 hr; mean of multiple tests
[8] = 1 % w/v, Vehicle #2, topical twice daily for 4 weeks
[9] = MDA-MB453-MMTV clone 54-19, inhibition of DHT induced luciferase, 17 hr; mean of multiple tests; read-out: AR Cell IC50

Structure (SMILES)	IC50 [2, 6] [nM]	IC50 [3, 7] [nM]	IC50 [3, 9] [nM]	further results
NCCCC(O)(P(=O)(O)O)P(=O)(O)O [alendronate]				increase in spinal BMD [1]: ≤ 11%
COc1cccc(Oc2ccc(C#N)c(C(F)(F)F)c2)c1OC [Example 91, 4-(2,3-Dimethoxy-phenoxy)-2-trifluoromethyl-benzonitrile]	272	28		Anagen-Trx (day on which anagen was initiated in 50% of the test animals) ([4]; mouse, in vivo): 20 days
Cc1ccccc1Oc1ccc(C#N)c(Cl)c1 [Example 7, 2-Chloro-4-o-tolyloxy-benzonitrile]				% CE Reduction [5]: 71%; % WE Reduction [5]: 87%; % WE & CE Reduction [5]: 158%; Anagen-Trx (day on which anagen was initiated in 50% of the test animals) [4, 8]: >60 days; Anagen-Trx (day on which anagen was initiated in 50% of the test animals) ([4]; 5 % w/v, Vehicle #2, topical twice daily for 4 weeks): 35 days
N#Cc1ccc(Oc2ccccc2F)c(Cl)c1 [Example 27, 3-Chloro-4-(2-fluoro-phenoxy)-benzonitrile]			46	Anagen-Trx (day on which anagen was initiated in 50% of the test animals) [4, 8]: >35 days
COc1cc(F)ccc1Oc1ccc(C#N)cc1Cl [Example 29, 3-Chloro-4-(4-fluoro-2-methoxy-phenoxy)-benzonitrile]	135	67		Anagen-Trx (day on which anagen was initiated in 50% of the test animals) ([4]; mouse, in vivo): 25 days
N#Cc1ccc(Oc2ccccc2-c2ccccc2)cc1Cl [Example 69, 4-(Biphenyl-2-yloxy)-2-chloro-benzonitrile]	159		> 1000	
COc1cccc(OC)c1Oc1ccc(C#N)c(Cl)c1 [Example 38, 2-Chloro-4-(2,6-dimethoxy-phenoxy)-benzonitrile]	249	19		
N#Cc1ccc(Oc2c(F)cccc2F)c(Cl)c1 [Example 124, 3-Chloro-4-(2,6-difluoro-phenoxy)-benzonitrile]		60		IC50 [2]: 45 nM
Cc1ccccc1Oc1ccc(C#N)cc1Cl [Example 4, 3-Chloro-4-o-tolyloxy-benzonitrile]				% CE Reduction [5]: 76%; % WE Reduction [5]: 90%; % WE & CE Reduction [5]: 166%; Anagen-Trx (day on which anagen was initiated in 50% of the test animals) ([4]; 3 % w/v, Vehicle #2 (polyethylene glycol/ethanol 30/70), topical twice daily for 4 weeks): >35 days
N#Cc1ccc(Oc2ccccc2C2CCCC2)cc1C(F)(F)F [Example 104, 4-(2-Cyclopentyl-phenoxy)-2-trifluoromethyl-benzonitrile]	228		592	
N#Cc1ccc(Oc2ccc(C#N)c(C(F)(F)F)c2)cc1C#N [Example 100, 4-(4-Cyano-3-trifluoromethyl-phenoxy)-phthalonitrile]	173		822	
C=CCc1ccccc1Oc1ccc(C#N)c(Cl)c1 [Example 51, 4-(2-Allyl-phenoxy)-2-chloro-benzonitrile]			252	IC50 [2]: 62 nM
